As a reminder, the EC50 is the concentration needed to bring the measured effect to its halfway point. One may read the IC50 as the concentration that gives 50% inhibition. High values mean weaker potency, low ones greater potency.

The structures appear in SMILES notation. Values joined by “and” are separate entries in the source; they are usually repeats but may differ in a detail not shown here. Identical values can stand only once. Active and inactive are the calls of the source.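 Rule for the calls: active = compounds giving half or more protection of infected cells from virus-caused growth loss, again on retest; inactive = the rest.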 Where only a bound is given, the exact number is not on record here.

The subject of this assay is CEM cells HIV-1 protection, formazan growth assay. Briefly: NCI AIDS Antiviral Assay. The conditions noted are these: for IC50: measured here: growth of uninfected CEM cells. The essentials: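 Five concentrations of each compound were applied to infected and uninfected human CEM cells. Protection from HIV-1 was judged from growth measured with a soluble formazan assay.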

Regarding `CCOc1ccc2nc(NC(=O)C3C4CCC(O4)C3C(=O)O)sc2c1` (stereo not given), the EC50 was over 200 µM and the IC50 is 135 µM.

As to `COc1cc(C=NC2CCCCC2)cc(OC)c1OC`, the EC50 was over 182 µM and the IC50 is 95.5 µM.

On to `CC1(C)C(=O)C(C)(C)C1=NN`, for which the EC50 is over 83.2 µM and the IC50 was over 83.2 µM. `CC(C)c1cc(OCC(O)CO)cc(C(C)C)c1` (stereo not given): the EC50 is over 141 µM and the IC50 was over 141 µM. Take `Cc1cc(O)c2c(c1)C(C1c3cccc(O)c3C(=O)c3c(O)cc(C)cc31)c1cccc(O)c1C2=O` (stereo not given): the EC50 is over 2 µM and the IC50 came out at 0.0912 µM.

Consider `NS(=O)(=O)c1ccc(NC(=O)Cc2nc3ccccc3s2)cc1`, for which the EC50 was over 195 µM and the IC50 worked out at 14.1 µM. `Cc1nnc2n(c1=O)CCCN2C`: the EC50 was over 200 µM and the half-inhibitory concentration (IC50) was over 200 µM. In the case of `CCOC(=O)c1ccc(N(CC(=O)O)S(=O)(=O)c2ccc(C)cc2)s1`, the EC50 is over 20 µM and the IC50 is over 20 µM. Consider `COc1ccc(N=Nc2c(-c3ccccc3)nn(C(=O)CC(=O)Nc3ccccc3Cl)c2-c2ccccc2)cc1`, for which the EC50 is over 24.5 µM and the IC50 was found to be 22.9 µM. As for `C#CCCOC(=O)c1ccccc1OC(C)=O`, the EC50 is over 200 µM and the IC50 was over 200 µM. In the case of `O=[N+]([O-])c1cc([N+](=O)[O-])c(C(Cl)C(Cl)c2ccccc2)cc1C(Cl)C(Cl)c1ccccc1` (stereo not given), the EC50 was over 5.25 µM and the IC50 is over 5.25 µM. In the case of `CCc1cccc(C)c1NC(=O)C(=O)Cc1nc2ccccc2s1`, the outcome was inactive. In the case of `COc1cccc2c1CCc1ccccc1CC2=O`, the EC50 was over 53.7 µM and the IC50 is over 53.7 µM.

With `O=C1[C@H]2ON(c3ccccc3)C(c3ccccc3)[C@H]2C(=O)N1c1ccc(Cc2ccc(N3C(=O)[C@@H]4ON(c5ccccc5)C(c5ccccc5)[C@@H]4C3=O)cc2)cc1` (stereo not given in full), the EC50 was over 13.2 µM and the IC50 was over 13.2 µM. `NS(=O)(=O)c1cc[c]([Sb](=[O])([OH])[OH])cc1` returned an EC50 of over 200 µM and an IC50 of over 200 µM. Regarding `O=[N+]([O-])c1ccc(S(=O)(=O)N/N=C/c2cccc3ccccc23)cc1`, the EC50 is over 51.3 µM and the IC50 was over 51.3 µM.

As for `COC(=O)c1ccccc1C1CN=NC12Cc1cc(C)ccc1C2=O` (stereo not given), the EC50 is over 200 µM and the IC50 is over 200 µM. As for `O=C(O)c1cc(N=Nc2ccc(CCc3ccc(N=Nc4cc(C(=O)O)c(O)cc4O)cc3S(=O)(=O)O)c(S(=O)(=O)O)c2)c(O)cc1O`, the EC50 was 70.8 µM and the IC50 stood at 135 µM.

Turning to `COC(=O)c1ccccc1/C=C1/Cc2ccccc2C1=O`, the EC50 is over 200 µM and the IC50 was over 200 µM. For the compound `CN(C)c1ccc(/C=C(\NC(=O)c2ccccc2)C2=NC(CCC(=O)O)C(=O)O2)cc1` (stereo not given), the EC50 was over 50.1 µM and the concentration for half-maximal inhibition (IC50) was over 50.1 µM. For the compound `O=C(O)C1CSCN1C(=O)c1ccccc1SSc1ccccc1C(=O)N1CSCC1C(=O)O` (stereo not given), the EC50 is 85.1 µM and the IC50 was over 100 µM. Consider `Cc1ccccc1NC(=O)C(=O)C(C#N)c1ccc(Cl)cc1` (stereo not given), for which the EC50 was over 12 µM and the IC50 is over 12 µM. As to `COC(=O)c1cc(C)ccc1CC(Cc1cccc(C)c1)C(=O)OC` (stereo not given), the EC50 was over 200 µM and the IC50 is over 200 µM.

`COC(=O)C1=CC(=O)C(C(=O)Nc2ccc(OC)cc2)C(c2ccccc2)O1` (stereo not given): the EC50 was over 7.08 µM and the IC50 was over 7.08 µM. `CC1CCCC(C(O)CC2CC(=O)N(c3ccccc3)C(=O)C2)C1=O` (stereo not given): the EC50 is over 200 µM and the IC50 was over 200 µM. For the compound `O=C(O)CN(c1ccc(Cl)cc1)S(=O)(=O)c1ccccc1`, the outcome was inactive.

As to `CN(C)C(=O)/N=N/C(=O)N(C)C`, the EC50 is over 89.1 µM and the IC50 was found to be 67.6 µM.

For the compound `O=C(C1OC1c1cccc([N+](=O)[O-])c1)C12CC3CC(CC(C3)C1)C2` (stereo not given), the EC50 was over 200 µM and the IC50 worked out at 3.47 µM. In the same order, the values of `COc1c(Cl)cc(C(=CCCCCN[C@@H]2CC[C@@]3(C)[C@@H](CC[C@@H]4[C@@H]3CC[C@]3(C)[C@@H](C(C)CCCC(C)C)CC[C@@H]43)C2)c2cc(Cl)c(OC)c(C(=O)O)c2)cc1C(=O)O` (stereo not given in full) are over 200 µM and over 200 µM. The matching figures for `CCOC(=O)c1[nH]c(Br)c(-c2ccc(Br)cc2)c1Br`: over 2 µM and 0.912 µM. In the same order, the values of `Oc1ccccc1-c1nnc2sc3c(Cl)c4nn5c(-c6ccccc6O)nnc5sc4c(Cl)c3nn12` are over 200 µM and 36.3 µM. Regarding `CCc1nc(N)c2nc(-c3ccc(C#N)cc3)oc2n1`, the EC50 is over 100 µM and the IC50 was over 100 µM. As for `Nc1nc2cc([N+](=O)[O-])cnc2s1`, the EC50 was over 479 µM and the IC50 worked out at 437 µM.

Consider `COC(=O)/C(C#N)=C1\CCc2ccccc21`, for which the EC50 was over 1170 µM and the IC50 was over 1170 µM.

On to `S=c1[nH]nc(COc2ccc(Cl)cc2)o1`, for which the EC50 is over 204 µM and the IC50 is over 204 µM. Take `COc1ccc2c(c1OC)OCC(CN(C)C)C2=O` (stereo not given): the outcome was inactive.

Turning to `CCOC(=O)C(=O)N=Nc1nc2c(O)c3ccccc3c(O)c2s1`, the EC50 is over 15.1 µM and the IC50 was determined as 8.71 µM.

For the compound `CCC[CH2][Sn]([CH2]CCC)([S]CCS(=O)(=O)O)[S]CCS(=O)(=O)O` (tested in a mixture with another compound), the EC50 was over 200 µM and the half-maximal inhibitory concentration (IC50) was over 200 µM. Turning to `CCOP(=O)(C=C=C(C)C)OCC`, the EC50 was over 200 µM and the IC50 was over 200 µM. For `COc1cc2nc3n(c2cc1OC)C(O)c1c(Cl)nc(SC)nc1S3` (stereo not given), the EC50 is over 200 µM and the IC50 turned out to be 7.76 µM. On to `CN1C/C(=C\c2ccccc2[N+](=O)[O-])C(=O)/C(=C/c2ccccc2[N+](=O)[O-])C1`, for which the EC50 is over 2 µM; the IC50 is 0.166 µM and 0.0871 µM. With `Cc1ccc(C(=O)CC2(O)C(=O)Nc3c(C)cc(Cl)cc32)cc1` (stereo not given), the EC50 was over 110 µM and the IC50 is over 110 µM. With `Cc1ccccc1-n1c(N)c(-c2nc3ccccc3[nH]2)sc1=S`, the EC50 is over 4.27 µM and the IC50 was over 4.27 µM. As for `CCN(CC)c1c(-c2ccccc2)nnc2c3ccccc3nn12`, the EC50 was over 200 µM and the 50% inhibitory concentration (IC50) worked out at 24 µM. The matching figures for `ClC(Cl)(Cl)SSC(=Nc1ccccc1)SSC(Cl)(Cl)Cl`: over 200 µM and 4.79 µM. Regarding `C=C(C)C(C(=O)OC(c1ccccc1)c1ccccc1)N1C(=O)C(NC(=O)COc2ccccc2)C1SSC(C)(C)C` (stereo not given), the EC50 is over 200 µM and the IC50 was determined as 72.4 µM. For the compound `CCCN1CN(c2ccccc2)C2(CCN(CCCC(=O)c3ccc(F)cc3)CC2)C1=O`, the EC50 is over 200 µM and the IC50 was determined as 3.02 µM.

Take `Cc1c(S(=O)(=O)c2ccccc2)c(N)n(CCN(C)C)c1C`: the EC50 is over 200 µM and the IC50 was 44.7 µM. The matching figures for `O=C1C2=C(SCCS2)C(=O)c2c(Sc3ccc(Cl)cc3)c(Sc3ccc(Cl)cc3)c(Sc3ccc(Cl)cc3)c(Sc3ccc(Cl)cc3)c21`: over 151 µM and over 151 µM. In the case of `CC(=O)N/C(=C\c1ccc(/C=C(\NC(C)=O)C2=NC3C(=O)c4ccccc4C(=O)C3N2)cc1)C1=NC2C(=O)c3ccccc3C(=O)C2N1` (stereo not given), the result was inactive. Turning to `COc1ccc(/C=C/C(=O)c2cc(CN(C)C)c(O)c(CN(C)C)c2)cc1`, the EC50 was over 200 µM and the IC50 amounted to 40.7 µM. `CCCN=C(C(C)=O)N(C)C`: the EC50 was over 1580 µM and the IC50 is 871 µM. In the same order, the values of `NC(=S)N/N=C1\c2ccccc2CCC1CCC1(O)CCc2ccccc2C1=O` (stereo not given) are over 200 µM and 31.6 µM. With `O=C(O/N=C1/CCCC/C1=C\c1ccccc1)c1ccc(Cl)cc1`, the outcome was inactive. As to `C[N+](C)(C)CCC#CC[N+]1(C)CCCC1`, the result was inactive. As for `Nc1ncnc2c1ncn2C1CC(O)C(CO)O1` (stereo not given), the EC50 was over 1000 µM and the IC50 stood at 186 µM. Regarding `O=C1NCCS(=O)(=O)N[C@@H](CC2=CC=CCC2)C(=O)N2CCCC12` (stereo not given in full), the EC50 was over 708 µM and the IC50 is over 708 µM. Regarding `N#CC1C(=O)Nc2cccnc21` (stereo not given), the EC50 is over 1580 µM and the IC50 stood at 832 µM. In the same order, the values of `Cc1nc(CC2C(CO[Si](C)(C)C(C)(C)C)OC(n3ccc(=O)[nH]c3=O)C2O[Si](C)(C)C(C)(C)C)no1` (stereo not given) are over 200 µM and 6.61 µM. For the compound `CN(C)CCNc1ncnc2nc(-c3ccccc3)c(-c3ccccc3)nc12`, the EC50 was over 200 µM and the IC50 turned out to be 112 µM.

Take `COc1cc(=O)cc(Cl)c(Cl)c1Cl`: the outcome was inactive. For `O=C1CC(C(COCc2ccccc2)OCc2ccccc2)CC(=O)N1` (stereo not given), the EC50 was over 200 µM and the IC50 was over 200 µM. For `CC1C=CC(C(=O)O)C2C(=O)OC(=O)C12` (stereo not given), the EC50 is over 1200 µM and the IC50 is over 1200 µM.

On to `Cc1ccc(-n2c(Cn3nnc(-c4cccnc4)n3)nn(C3OC(COC(=O)c4ccccc4)C(OC(=O)c4ccccc4)C3OC(=O)c3ccccc3)c2=S)cc1C` (stereo not given), for which the EC50 is over 100 µM and the IC50 was over 100 µM. On to `c1ccc(N2N=NC3C4CC(C5CCCC54)C32)cc1` (stereo not given), for which the EC50 is over 200 µM and the IC50 is over 100 µM. With `Cn1ncc2c(N(N)CCO)nc(-c3ccc([N+](=O)[O-])o3)nc21`, the EC50 is over 200 µM and the IC50 is 10.7 µM. Consider `CN(C(=O)C1=CCCCCC1)c1ccccc1I`, for which the EC50 is over 200 µM and the IC50 is 38.9 µM. Turning to `CC1=C(C)SC(=C2Sc3c(n(C)c(=O)n(C)c3=O)S2)S1`, the EC50 was 182 µM and the IC50 is over 200 µM.

On to `C[n+]1c2ccccc2n2c3ccccc3c(NCCCn3ccnc3)c(C#N)c21`, for which the EC50 is over 20 µM and the IC50 came out at 1.1 µM. Consider `CN(C)C(N)=NC#N`, for which the EC50 is over 794 µM and the IC50 was over 794 µM.

Consider `COC(=O)C(=O)Nc1cc2c3c(c1)Oc1cccc4c1C3(C)c1c(cccc1O2)O4`, for which the EC50 was 28.2 µM and the IC50 is 126 µM.
